# From US11241437B2, “Heterocyclic compounds, preparation methods and uses thereof” (InventisBio Co., Ltd., priority 2019, dated 2022)
# Key:
# Format in all cases: physicochemical
# [1] = Solubility of Form A of Compound 2 in organic solvents; settings: for Solubility: organic solvent or mixture
# [2] = Solubility of Form A and Form B of Compound 2 in bio-relevant media; settings: for Solubility: 37° C.
# Procedure: Solubility in Bio-relevant Media: Form A and Form B was added into SGF, FeSSIF, FaSSIF and water, respectively. The suspensions were kept shaking at 37° C. with 200 rpm for 24 hours. At 0.5 h, 2 h and 24 h, suspensions were filtered and drug concentrations of filtrates were analyzed by HPLC. pH of filtrates was measured at each time point. The remaining solids at 24 hours were characterized by XRPD.
# [3] = Manual grinding of Form A and Form B of Compound 2; settings: ground manually for 5 min
# Procedure: About 10-20 mg of Compound 2 in Form A and Form B were ground manually for 5 min, respectively.
# [4] = Solubility of Compound 1 solid forms in bio-relevant media and water; settings: FaSSIF
# Procedure: Solubility Studies: Solubility of Form IV was tested in three bio-relevant media (Simulated Gastric Fluid (SGF), Fasted State Simulated Intestinal Fluid (FaSSIF), and Fed State Simulated Intestinal Fluid (FeSSIF)) and water. […] Form IV (˜10 mg) was weighed into 2 mL of four media to make suspensions respectively, and about 10 mg of the amorphous starting material was also added into 2 mL of FaSSIF. Then all suspensions were shaken at 37° C. with 200 rpm for up to 24 hours. At 0.5, 2 and 24 hours, about 0.7 mL of each suspension was filtered. The filtrate was analyzed by HPLC and pH meter, and the residual solids were also checked by XRPD at 24 hours.
# [5] = Solubility of amorphous Compound 1 in solvents (anti-solvent precipitation screening); settings: RT
# [6] = Competitive slurry (interconversion) of Form A, Form B and Form C of Compound 2; settings: RT or 50° C.
# Procedure: Interconversion Studies: Competitive slurry of Form A, Form B and Form C was performed in acetone and acetone/water (1/4) at RT or 50° C., with details shown below.
# [7] = Interconversion studies of solid forms of Compound 1 (slurry)
# Procedure: Interconversion Studies: Equal amounts (˜7 mg) of Form I, II and III were mixed together and then suspended in 0.5 mL of different solvents at room temperature or 50° C., respectively. Residual solids were collected by filtration and characterized at appropriate time. Additionally, Form IV (˜12 mg) was slurried in 0.5 ml, water or MeOH/water (1/4) at RT or 50° C. for 3 days. Residual solids were collected by filtration and analyzed by XRPD.
# [8] = Polymorph characterization summary of Compound 1 forms (form stability)
# From the text: In the polymorph screening, five XRPD Patterns (FIG. 11) were generated, and four forms were identified including 2 anhydrates and 2 hydrates.
smiles,measurement,setting,value
"C=CC(=O)N1C[C@H](C)N(c2nc(=O)n(-c3c(C4CC4)ncnc3C3CC3)c3nc(-c4c(N)cccc4F)c(F)cc23)C[C@H]1C (single isomer, unassigned) [Form A]",Solubility in other solvents,[1],practically insoluble
same,Solubility,"[1]; DCM, read-out: Solubility in DCM",> 92 mg/mL
same,Solubility,"[1]; MeOH, butanone, THF, ACN, acetone, read-out: Solubility in MeOH, butanone, THF, ACN and acetone",20 to 33 mg/mL
same,Solubility,"[2]; FaSSIF (pH 6.5), 0.5 h",0.019 mg/mL
same,Solubility,"[2]; FaSSIF (pH 6.5), 2 h",0.029 mg/mL
same,Solubility,"[2]; FaSSIF (pH 6.5), 24 h",0.024 mg/mL
same,Solubility,"[2]; FeSSiF (pH 5.0), 0.5 h",0.041 mg/mL
same,Solubility,"[2]; FeSSiF (pH 5.0), 2 h",0.045 mg/mL
same,Solubility,"[2]; FeSSiF (pH 5.0), 24 h",0.042 mg/mL
same,Solubility,"[2]; SGF (pH 1.2), 0.5 h",0.067 mg/mL
same,Solubility,"[2]; SGF (pH 1.2), 2 h",0.072 mg/mL
same,Solubility,"[2]; SGF (pH 1.2), 24 h",0.17 mg/mL
same,XRPD patterns of remaining solids,"[2]; SGF, FeSSIF, FaSSIF and water, at 24 hours",unchanged
same,Solubility,"[2]; Water, 0.5 h",0.015 mg/mL
same,Solubility,"[2]; Water, 2 h",0.025 mg/mL
same,Solubility,"[2]; Water, 24 h",0.043 mg/mL
same,Crystal form after grinding,[3],unchanged
C=CC(=O)N1C[C@H](C)N(c2nc(=O)n(-c3c(C4CC4)ncnc3C3CC3)c3nc(-c4c(N)cccc4F)c(Cl)cc23)C[C@H]1C [Amorphous material],Solubility,"[4]; 37° C., 0.5 h",0.302 mg/mL
same,Solubility,"[4]; 37° C., 2 h",0.263 mg/mL
same,Solubility,"[4]; 37° C., 24 h",0.283 mg/mL
same,XRPD-24 h of residual solids,"[4]; 37° C., 24 h",unchanged
same,Solubility in FaSSIF,"[4]; time point not stated, listed as amorphous starting material",0.3 mg/mL
same,"Solubility in MTBE, water and heptane",[5],low solubility
same,Solubility in most solvents,[5],high solubility
"C=CC(=O)N1C[C@H](C)N(c2nc(=O)n(-c3c(C4CC4)ncnc3C3CC3)c3nc(-c4c(N)cccc4F)c(F)cc23)C[C@H]1C [Form A, Form B and Form C]",Form after competitive slurry,"[6]; non-aqueous solvent (acetone), after 1 day",completely converted to Form B
same,Form after competitive slurry,"[6]; solvent-aqueous solution (acetone/water 1/4), after 7 days",showed tendency to convert to Form B
"C=CC(=O)N1C[C@H](C)N(c2nc(=O)n(-c3c(C4CC4)ncnc3C3CC3)c3nc(-c4c(N)cccc4F)c(Cl)cc23)C[C@H]1C [Form I, II and III]",XRPD of wet cake,"[7]; EA/MTBE (1/4), 50° C., 3 days",Form IV
same,XRPD of wet cake,"[7]; EA/MTBE (1/4), RT, 3 days",Form IV
same,XRPD of wet cake,"[7]; IPA, 50° C., 4 days",Form IV
same,XRPD of wet cake,"[7]; IPA, RT, 3 days",Pattern 1
same,XRPD of wet cake,"[7]; MeOH/Water (1/4), 50° C., 3 days",Form IV
same,XRPD of wet cake,"[7]; MeOH/Water (1/4), RT, 3 days",Form II
C=CC(=O)N1C[C@H](C)N(c2nc(=O)n(-c3c(C4CC4)ncnc3C3CC3)c3nc(-c4c(N)cccc4F)c(Cl)cc23)C[C@H]1C [Form III],Stability of the solid form,[8],not stable
C=CC(=O)N1C[C@H](C)N(c2nc(=O)n(-c3c(C4CC4)ncnc3C3CC3)c3nc(-c4c(N)cccc4F)c(Cl)cc23)C[C@H]1C [Form II],Stability of the solid form,[8],not stable
